Data from article PMC5986790, “Rational Discovery of (+) (S) Abscisic Acid as a Potential Antifungal Agent: a Repurposing Approach” (Scientific Reports, 2018).

Experiments:
yeast chorismate mutase [1] = biological target: T1, yeast chorismate mutase (Saccharomyces cerevisiae, UniProt P32178); set-up: gene ARO7; settings: 1 mM chorismic acid; yeast sonicate; Tris-HCl pH 8; 30 °C; tyrosine 10-500 µM; allosteric
yeast chorismate mutase [2] = biological target: T1, yeast chorismate mutase; test: HPLC of chorismic acid and phenylpyruvate (prephenate converted by acid); assay type: biochemical; set-up: gene ARO7; native enzyme in crude sonicated yeast cell extract, not purified; homodimer (known biology); 256 residues; settings: 1 mM chorismic acid; yeast sonicate; Tris-HCl pH 8; 30 °C; ABA 10-500 µM
yeast chorismate mutase [3] = biological target: T1, yeast chorismate mutase; assay type: biochemical; set-up: gene ARO7; native enzyme in crude sonicated yeast cell extract, not purified; homodimer (known biology); 256 residues; settings: 1 mM chorismic acid; yeast sonicate; Tris-HCl pH 8; 30 °C

T1 sequence (P32178 whole entry): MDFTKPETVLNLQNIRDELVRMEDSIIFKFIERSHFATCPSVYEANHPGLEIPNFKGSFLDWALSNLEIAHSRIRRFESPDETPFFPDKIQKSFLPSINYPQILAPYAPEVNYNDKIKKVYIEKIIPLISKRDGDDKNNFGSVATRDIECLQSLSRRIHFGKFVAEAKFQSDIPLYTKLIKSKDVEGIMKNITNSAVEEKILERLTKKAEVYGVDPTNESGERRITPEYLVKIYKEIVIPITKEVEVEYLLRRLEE

Which “optimal inhibitor concentration (not an IC50)” value (yeast chorismate mutase [1]) does the source give for `N[C@@H](Cc1ccc(O)cc1)C(=O)O` [Tyrosine] here?
Its value is 100 µM.

How did the “inhibitory concentration (range, not an IC50)” value (yeast chorismate mutase [2]) turn out when `CC1=CC(=O)CC(C)(C)[C@@]1(O)/C=C/C(C)=C\C(=O)O` [(+)-Abscisic acid, 5-(1-hydroxy-2,6,6-trimethyl-4-oxo-2-cyclohexene-1-yl)-3-methyl-pentadienoic acid] was run?
The value was 200 to 300 µM.

How did the “HPLC of chorismic acid and phenylpyruvate (prephenate converted by acid)” value (yeast chorismate mutase [3]) turn out when `C=C(O[C@@H]1C=C(C(=O)O)C=C[C@H]1O)C(=O)O` [chorismic acid] was run?
Its value is “yeast chorismate mutase catalysed the conversion of externally added chorismic acid to prephenic acid”.
